Test results as given in patent publication US20220288057A1, “CONJOINT THERAPY FOR TREATING SEIZURE DISORDERS” (XENON PHARMACEUTICALS INC., priority 2021, published 2022).
Values joined by “and” are separate entries in the source; they are usually repeats but may differ in a detail not shown here. Equal values may be shown once. Read-outs that look alike come from different tables or passages of the source.

What was measured:
[1] = Terminal plasma and brain concentrations in AC-MES studies (UHPLC-MS/MS); type: in vivo, mouse; conditions: male, CF-1, mouse, in vivo, po; for Kp at 0.5 h: read-out: B/P Ratio; for Kp at 30 min: read-out: B/P Ratio (brain to plasma ratio); for concentration at 30 min: CF-1 mice
Experimental: Sample Collection and Preparation: Mice were anesthetized by isoflurane inhalation (according to SOP TECH-018) until they reached a surgical plane of anesthesia. Then a syringe (1 mL syringe with a 22 gauge needle) was inserted under the sternum into the heart (according to SOP TECH-031). Approximately 0.5 mL of blood was collected, deposited into a K2EDTA tube, and stored on ice. Animals were then euthanized by cervical dislocation. Brains were removed, placed into a pre-weighed vial, and snap frozen on dry ice. At the end of the sample collection, blood was centrifuged at 4000 rpm for 10 minutes at 4° C., and the plasma pipetted into a labeled tube. All samples were stored in a −80° C. freezer until the time of bioanalysis.
Plasma Samples: Extraction of plasma samples was carried out by protein precipitation using acetonitrile. Diluted plasma samples (50 μL) were mixed with 50 μL of internal standard (IS) solution in 1:1 acetonitrile:water (v:v) followed by addition of 200 μL of acetonitrile. Samples were vortexed for 30 seconds, centrifuged at 13,000 rpm for 20 minutes, decanted into a 96-well plate and further centrifuged at 4000 rpm for 20 minutes. The samples were analyzed by ultra-high performance liquid chromatography electrospray ionization tandem mass spectrometry (UHPLC-ESI-MS/MS) as described in the bioanalysis procedure below.
Brain Samples: Prior to extraction, pre-weighed whole brains were homogenized in 1:1 acetonitrile:water (v:v) (2 mL per mouse brain) using an IKA T18 Ultra-Turrax Homogenizer at the setting of 4 for approximately 1 minute. The homogenate was centrifuged at 13,000 rpm for 20 minutes and 50 μL of the supernatant were treated exactly as described in above for plasma samples.
Bioanalysis Procedures: All samples, including plasma and brain homogenate extracts (including calibration standards and quality control (QC) samples prepared in K2EDTA mouse plasma), were extracted by protein precipitation. To each 50 μL aliquot of sample, 50 μL of IS solution (2500 ng/mL of Lacosamide in water:acetonitrile (1:1)) and 50 μL of 6% (v:v) phosphoric acid in water were added, then 200 μL acetonitrile was added. The samples in 1.7 mL tubes were vortex-mixed then centrifuged for 20 minutes at 13,000 rpm. Fifty microliters of the supernatant was mixed with 150 μL of water:acetonitrile (1:1) in a 96 well plate, which was centrifuged post-mixing for 20 minutes at 4000 rpm. The samples were then ready for UHPLC-MS/MS analysis.
Samples were analyzed for Compound A by a research-grade UHPLC-MS/MS method using the conditions listed below.
Samples were analyzed for Lacosamide by a research-grade UHPLC-MS/MS method using the conditions listed below.
At least three QC samples, one at each concentration, had to show back-calculated values within ±20% of their nominal concentrations for the whole sample batch to be valid.
(§1) The Blinding and Randomization, Clinical Observations, AC-MES Assay, Sample Collection and Preparation, Plasma and Brain Samples Analysis, and Bioanalysis Procedures in Example 4 were identical to those used in Example 2.
Sample concentration determination and Data Processing and Analysis in Example 4 was identical to Example 2.

CF-1 mouse = assay: Clinical observations / behavioral signs in AC-MES studies; type: in vivo
Experimental: Any qualitative changes from normal behavior were recorded.
Five oral (PO) doses of Compound A were each tested in the AC-MES model. Thirty minutes after administration of Compound A at 1 mg/kg (n=8), 3 mg/kg (n=8), 5 mg/kg (n=16), 7.5 mg/kg (n=7), and 10 mg/kg (n=17) via oral gavage to male CF-1 mice (body weights 28.2 to 43.8 g), the mice underwent a 60 Hz corneal electrical stimulus (0.2 seconds duration, 40 mA). This stimulus elicited a tonic hindlimb extension in all vehicle-dosed animals. […] An observational neurological assessment (qualitative test) was also conducted at the time of testing as a tolerability screen. Terminal plasma and brain samples were collected from all animals to obtain the levels of Compound A concentration, and to understand the relationship between efficacy and drug concentration.
as §1

## Cc1cc(N2CCc3cc(F)ccc3C2)cc(C)c1NC(=O)CC(C)(C)C [Compound A, N-[4-(6-fluoro-3,4-dihydro-1H-isoquinolin-2-yl)-2,6-dimethylphenyl]-3,3-dimethylbutanamide]
[1]; 5 mg/kg, Study 2B, Compound A 5 mg/kg PO
  Kp at 0.5 h: 1.51
[1]; 5 mg/kg, Study 2B, Compound A 5 mg/kg PO, read-out: Mean Brain
  concentration at 0.5 h: 710 nM
[1]; 5 mg/kg, Study 4A, Compound A 5 mg/kg PO, read-out: mean plasma concentration
  concentration at 0.5 h: 280 nM
[1]; 5 mg/kg, Study 4A, Compound A 5 mg/kg single oral dose
  Kp at 30 min: 1.45
[1]; 5 mg/kg, Study 4B, Compound A 5 mg/kg PO, read-out: mean plasma concentration
  concentration at 0.5 h: 470 nM
[1]; 5 mg/kg, Study 4B, Compound A 5 mg/kg single oral dose, read-out: Mean Brain
  concentration at 30 min: 710 nM
[1]; 5 mg/kg, Study 4B, Compound A 5 mg/kg single oral dose, read-out: Mean Plasma
  concentration at 30 min: 1000 nM
[1]; 5 mg/kg, Study 4B, Compound A 5 mg/kg single oral dose
  Kp at 30 min: 1.51
[1]; 7.5 mg/kg, Study 2B, Compound A 7.5 mg/kg PO
  Kp at 0.5 h: 1.64
[1]; 7.5 mg/kg, Study 2B, Compound A 7.5 mg/kg PO, read-out: Mean Brain
  concentration at 0.5 h: 870 nM
[1]; 7.5 mg/kg, Study 2B, Compound A 7.5 mg/kg PO, read-out: Mean Plasma
  concentration at 0.5 h: 530 nM
[1]; 7.5 mg/kg, Study 4B, Compound A 7.5 mg/kg single oral dose, read-out: Mean Brain
  concentration at 30 min: 870 nM
[1]; 7.5 mg/kg, Study 4B, Compound A 7.5 mg/kg single oral dose, read-out: Mean Plasma
  concentration at 30 min: 530 nM
[1]; 7.5 mg/kg, Study 4B, Compound A 7.5 mg/kg single oral dose
  Kp at 30 min: 1.64
[1]; 10 mg/kg, Study 2A, Compound A 10 mg/kg PO
  Kp at 0.5 h: 1.36
[1]; 10 mg/kg, Study 2A, Compound A 10 mg/kg PO, read-out: Mean Brain
  concentration at 0.5 h: 500 nM
[1]; 10 mg/kg, Study 2A, Compound A 10 mg/kg PO, read-out: Mean Plasma
  concentration at 0.5 h: 366 nM
[1]; 10 mg/kg, Study 2B, Compound A 10 mg/kg PO
  Kp at 0.5 h: 1.64
[1]; 10 mg/kg, Study 2B, Compound A 10 mg/kg PO, read-out: Mean Brain
  concentration at 0.5 h: 910 nM
[1]; 10 mg/kg, Study 2B, Compound A 10 mg/kg PO, read-out: Mean Plasma
  concentration at 0.5 h: 553 nM
[1]; 10 mg/kg, Study 4A, Compound A 10 mg/kg PO, read-out: mean plasma concentration
  concentration at 0.5 h: 370 nM
[1]; 10 mg/kg, Study 4A, Compound A 10 mg/kg single oral dose
  Kp at 30 min: 1.36
[1]; 10 mg/kg, Study 4B, Compound A 10 mg/kg PO, read-out: mean plasma concentration
  concentration at 0.5 h: 550 nM
[1]; 10 mg/kg, Study 4B, Compound A 10 mg/kg single oral dose, read-out: Mean Brain
  concentration at 30 min: 910 nM
[1]; 10 mg/kg, Study 4B, Compound A 10 mg/kg single oral dose, read-out: Mean Plasma
  concentration at 30 min: 550 nM
[1]; 10 mg/kg, Study 4B, Compound A 10 mg/kg single oral dose
  Kp at 30 min: 1.64
CF-1 mouse; Study 2A, Compound A 1 mg/kg PO, 0.5 h
  Fraction with Behavioral Signs: 0/8
CF-1 mouse; Study 2A, Compound A 5 mg/kg PO, 0.5 h
  Fraction with Behavioral Signs: 0/8
CF-1 mouse; Study 2A, Compound A 10 mg/kg PO, 0.5 h
  Fraction with Behavioral Signs: 1/8
CF-1 mouse; Study 2A, Compound A 10 mg/kg group, 10 mg/kg
  plasma concentration of individual mouse showing behavioral signs (tremors, decreased activity, splayed hindlimbs): 390 nM
CF-1 mouse; Study 2B, Compound A 5 mg/kg PO, 0.5 h
  Fraction with Behavioral Signs: 0/8
CF-1 mouse; Study 2B, Compound A 7.5 mg/kg PO, 0.5 h
  Fraction with Behavioral Signs: 1/7
CF-1 mouse; Study 2B, Compound A 7.5 mg/kg group, 7.5 mg/kg
  plasma concentration of individual mouse showing behavioral signs (tremors, decreased activity, splayed hindlimbs): 750 nM
CF-1 mouse; Study 2B, Compound A 10 mg/kg PO, 0.5 h
  Fraction with Behavioral Signs: 2/9
CF-1 mouse; Study 2B, Compound A 10 mg/kg group, two mice, 10 mg/kg
  plasma concentration of individual mouse showing behavioral signs (tremors, decreased activity, splayed hindlimbs): 516 nM and 610 nM and 520 nM
CF-1 mouse; Study 2C, Compound A 3 mg/kg PO, 0.5 h, alone
  Fraction with Behavioral Signs: 0/8
CF-1 mouse; Study 4A, Compound A 10 mg/kg group
  plasma concentration of individual mouse showing behavioral signs (tremors, decreased activity, splayed hindlimbs): 390 nM
CF-1 mouse; Study 4A, Compound A 1 mg/kg single oral dose
  Behavioral Signs (fraction): 0/8
CF-1 mouse; Study 4A, Compound A 5 mg/kg single oral dose
  Behavioral Signs (fraction): 0/8
CF-1 mouse; Study 4A, Compound A 10 mg/kg single oral dose
  Behavioral Signs (fraction): 1/8
CF-1 mouse; Study 4B, Compound A 7.5 mg/kg group
  plasma concentration of individual mouse showing behavioral signs (tremors, decreased activity, splayed hindlimbs): 750 nM
CF-1 mouse; Study 4B, Compound A 10 mg/kg group, two mice, 10 mg/kg
  plasma concentration of individual mouse showing behavioral signs (tremors, decreased activity, splayed hindlimbs): 610 nM and 520 nM
CF-1 mouse; Study 4B, Compound A 5 mg/kg single oral dose
  Fraction with Behavioral Signs: 0/8
CF-1 mouse; Study 4B, Compound A 7.5 mg/kg single oral dose
  Fraction with Behavioral Signs: 1/7
CF-1 mouse; Study 4B, Compound A 10 mg/kg single oral dose
  Fraction with Behavioral Signs: 2/9
CF-1 mouse; Study 4C, Compound A 3 mg/kg single oral dose
  Fraction with Behavioral Signs: 0/8
CF-1 mouse; Study 4F, Compound A 2 mg/kg PO alone
  Fraction with Behavioral Signs: 0/8
